Results on 15 molecules are retold here after PMC2810230, “Antiplasmodial Activities of Homogentisic Acid Derivative Protein Kinase Inhibitors Isolated from a Vanuatu Marine Sponge Pseudoceratina sp” (Marine Drugs, 2009).

Where two headings read alike, the source gives them in different places.

Test [1] addresses Pfnek-1 (Plasmodium falciparum, UniProt Q8I5D5). Put plainly: Pfnek-1 protein kinase assay (33P incorporation in β-casein). Format: biochemical. As for the experimental part:
A GST-Pfnek-1 fusion protein was purified from the Escherichia coli BL21 strain carrying a Pfnek-1 expression plasmid harbouring an ampicillin resistance cassette (bacteria kindly provided by D. Dorin, INSERM 511) as described by Dorin et al.. Pfnek-1 kinase activity was determined by measuring the ^33P incorporation in ß-caseine using γ[^33P]-ATP.
Briefly, test compounds were dissolved in DMSO and diluted in 20 mM Tris, pH 7.5 20 mM MgCl2, 10 mM NaF and 10 mM ATP. β-casein (3 mg/mL) and γ[^33P]-ATP were added prior to the addition of Pfnek-1 to start the kinase reaction. Approximately 5 μCi of γ[^33P]-ATP was used per reaction. After incubation at 30 °C for 30 min, each solution was blotted on a phosphocellulose filter paper (P81 Whatman-cation exchange chromatography paper). After four washes with 1% H3PO4 at, the remaining radioactivity was measured using a liquid scintillation analyzer Packard 1600TR. The IC50 is defined as the concentration of compound which inhibits 50% of enzyme activity compared to the control (reaction in the absence of inhibitor).

Test [2] deals with chloroquine-resistant Plasmodium falciparum strain FcB1. The experiment in a line: Activity against erythrocytic stages of cultured P. falciparum (LDH assay). The test is classed as cell-based. The note with it: for IC50: read-out: FCB1 of P. falciparum IC50; for Antiplasmodial activity against FcB1 P. falciparum (in words): in vitro. Here is the method: The antiplasmodial activity was studied in vitro against the chloroquine-resistant Plasmodium falciparum strain FcB1 by a micromethod using the lactate deshydrogenase (LDH) assay (Makler and Hinrichs). Parasites were cultivated using the method of Trager and Jensen. Erythrocytes infected with P. falciparum (ring stage, 1% of parasitaemia) were re-suspended in complete culture medium at a haematocrit of 1.5%. The suspension was distributed in 96-well microtitre plates (200 μL per well). Drug testing was performed in triplicate. For each assay, a parasite culture was incubated with the drug for 48 h in 5% CO2 at 95% relative humidity, and frozen until the biochemical assay could be run. After defrosting, a 20 μL sub-sample of the contents of each well was mixed with 100 μL of a substrate solution containing 20 mg/mL of lithium L-lactate (Sigma), 5.5 mg/mL of TRIS (Sigma), and 3.7 mg/mL of 3-acetylpyridine adenine dinucleotide (APAD; Sigma), in the well of another microtitre plate. After incubation for 30 min, 25 μL of a mixture of NBT (1.6 mg/mL; Sigma) and PES (0.1 mg/mL; Sigma) were added to each well. After a further 35 min of incubation, the reaction was stopped by the addition of 25% acetic acid (25 μL per well). Accumulation of the reduced form of APAD was measured at λ = 650 nm, using a spectrophotometer (microplate reader, Metertech). IC50 values were determined graphically in a concentration versus percent inhibition curve.

The test system of test [3] is Staphylococcus aureus. The experiment in a line: Antibacterial disc growth inhibition test, S. aureus. The test is classed as cell-based.
Test [4] deals with Escherichia coli. The experiment in a line: Antibacterial disc growth inhibition test, E. coli. The test is classed as cell-based. As for the experimental part:
Activity was evaluated by the standard […] with human pathogenic Staphylococcus aureus and Escherichia coli at 100 μg/disc for a disc of 6 mm diameter (Table 3). […] Bromotyrosine metabolites have already been reported as antibacterials.

Test [5] deals with chloroquine-resistant Plasmodium falciparum strain FcB1. Also noted: method as in PMID 15124089. The note with it: isolated from leaves of Glossocalyx brevipes; cited from earlier work.
Setting [6] is: GST-Pfnek-1, β-casein substrate, 30 °C, 30 min.
Where [7] appears, read: Plasmodium falciparum, FcB1 strain, 48 h incubation, LDH readout.
[8] abbreviates: 100 μg/disc, disc of 6 mm diameter.
Where [9] appears, read: FcB1 strain, 48 h incubation, LDH readout.

Sequence of Pfnek-1 (Q8I5D5 entry or part of it): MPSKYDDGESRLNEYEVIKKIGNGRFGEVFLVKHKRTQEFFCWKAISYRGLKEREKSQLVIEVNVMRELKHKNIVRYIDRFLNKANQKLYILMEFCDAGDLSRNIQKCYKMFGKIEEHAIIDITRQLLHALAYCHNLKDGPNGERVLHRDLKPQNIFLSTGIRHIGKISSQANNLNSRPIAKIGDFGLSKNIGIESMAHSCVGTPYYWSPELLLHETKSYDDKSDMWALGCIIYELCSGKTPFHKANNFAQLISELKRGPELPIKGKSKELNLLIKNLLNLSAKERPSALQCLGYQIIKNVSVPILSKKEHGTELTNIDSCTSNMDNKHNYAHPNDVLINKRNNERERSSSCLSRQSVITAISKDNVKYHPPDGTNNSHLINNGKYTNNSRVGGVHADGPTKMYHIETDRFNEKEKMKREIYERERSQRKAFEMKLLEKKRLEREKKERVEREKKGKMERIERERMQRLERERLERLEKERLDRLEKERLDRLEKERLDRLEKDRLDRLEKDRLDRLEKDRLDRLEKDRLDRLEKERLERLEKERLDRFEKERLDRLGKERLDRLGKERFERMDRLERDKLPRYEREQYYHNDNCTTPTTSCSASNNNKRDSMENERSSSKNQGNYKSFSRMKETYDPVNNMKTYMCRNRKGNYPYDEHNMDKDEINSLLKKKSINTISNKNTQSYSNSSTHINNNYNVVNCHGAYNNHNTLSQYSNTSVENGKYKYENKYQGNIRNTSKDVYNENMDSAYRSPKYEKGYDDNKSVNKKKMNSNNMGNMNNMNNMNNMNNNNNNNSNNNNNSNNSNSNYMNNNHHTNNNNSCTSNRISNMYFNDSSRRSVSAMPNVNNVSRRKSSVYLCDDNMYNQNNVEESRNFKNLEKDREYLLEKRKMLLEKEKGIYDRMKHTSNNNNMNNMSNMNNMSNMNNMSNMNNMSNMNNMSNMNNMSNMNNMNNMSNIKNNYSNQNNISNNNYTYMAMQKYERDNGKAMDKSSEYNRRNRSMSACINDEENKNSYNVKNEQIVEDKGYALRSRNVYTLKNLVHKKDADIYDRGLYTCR

In general, IC50 refers to the point on the concentration scale where inhibition reaches its midpoint. Turning to `COC1=C(Br)[C@H](O)[C@@]2(C=C1Br)CC(C(=O)NCCCOc1c(Br)cc(C(O)CNC(=O)C3=NO[C@]4(C=C(Br)C(OC)=C(Br)[C@@H]4O)C3)cc1Br)=NO2` (stereo partly shown) [Compound 2, 11-deoxyfistularin-3], the “Pfnek-1 inhibitory activity (in words)” value in test [1] is “inactive”. For the same molecule, the concentration for half-maximal inhibition (IC50) is over 50 µM in test [1] (setting [6]) and over 100 µM in test [2] (setting [7]). The “Growth inhibition diameter, S. aureus” value in test [3] (setting [8]) was found to be 0 mm. In addition, the “Growth inhibition diameter, E. coli” value in test [4] (setting [8]) was 0 mm.

As for `COC(=O)CC1(CC=C(C)CCC=C(C)C)CC(O)C=CC1=O` (stereo not drawn) [methyl 2-(1′β-geranyl-5′β-hydroxy-2′-oxocyclohex-3-enyl)acetate], the “Activity against P. falciparum (in words)” value in test [5] is on record as “modest activities”.

For the molecule `CC(C)=CCCC(C)=CCC1(CC(=O)O)CC(O)C=CC1=O` (stereo not drawn) [2-(1′β-geranyl-5′β-hydroxy-2′-oxocyclohex-3′-enyl)acetic acid], the “Activity against P. falciparum (in words)” value in test [5] is “modest activities”.

For the molecule gentamycin [reference compound], in test [3] (10 μg/disc), the “Growth inhibition diameter, S. aureus” value is given as 16 mm.

For `O=C1Cc2c(cc(Br)c(O)c2Br)O1` [Compound 6a, 4,6-Dibromo-5-hydroxy-3H-benzofuran-2-one], the “Pfnek-1 inhibitory activity (in words)” value in test [1] is given as “inactivity”. In addition, the results for the IC50 in test [1] (setting [6]) and in test [2] (setting [7]) were over 50 µM and 35 µM, respectively.

Consider `COC(=O)Cc1cc(O)ccc1O` [Compound 8, Methyl (2,5-dihydroxyphenyl)acetate], for which, in test [1], the “Pfnek-1 inhibitory activity (in words)” value is “inactive”. The figures for the concentration for half-maximal inhibition (IC50) in test [1] (setting [6]) and in test [2] (setting [7]) were over 50 µM and 36 µM, respectively.

Regarding `COC(=O)Cc1cc(Br)c(O)c(Br)c1O` [Compound 12, Methyl (3,5-dibromo-2,4-dihydroxyphenyl)acetate], the “Pfnek-1 inhibitory activity (in words)” value in test [1] is “inactive”. Besides, the IC50 is over 50 µM in test [1] (setting [6]) and over 100 µM in test [2] (setting [7]). The “Antiplasmodial activity against FcB1 P. falciparum (in words)” value in test [2] was “inactive”.

With `O=C1Cc2cc(O)ccc2O1` [Compound 5, 5-Hydroxy-3H-benzofuran-2-one], the IC50 was over 50 µM in test [1] and 29 µM in test [2] (setting [7]).

On to `COC(=O)Cc1cc(O)c(Br)cc1O` [Compound 4b, Methyl (4-bromo-3,6-dihydroxyphenyl)acetate], for which the “Pfnek-1 inhibitory activity (in words)” value in test [1] is “moderately active”. Further, the IC50 is 10 µM in test [1] (setting [6]) and 26 µM in test [2] (setting [7]).

In the case of “Methyl (3,6-dibenzoyl-2,4-dibromophenyl)acetate [Compound 13a]”, the “Pfnek-1 inhibitory activity (in words)” value in test [1] is reported as “inactivity”. Further, the figures for the IC50 in test [1] (setting [6]) and in test [2] (setting [9]) were over 50 µM and 22.5 µM, respectively.

Consider `COC1=C(Br)[C@H](O)[C@@]2(C=C1Br)CC(C(=O)NCCCOc1c(Br)cc(CCNC(=O)C3=NO[C@]4(C=C(Br)C(OC)=C(Br)[C@@H]4O)C3)cc1Br)=NO2`, for which the “Pfnek-1 inhibitory activity (in words)” value in test [1] was “inactive”. In addition, the IC50 was over 50 µM in test [1] (setting [6]) and over 100 µM in test [2] (Plasmodium falciparum, FCB1, 48 h). Moreover, the “Antibacterial activity against S. aureus (in words)” value in test [3] (100 μg/disc) was “strong antibacterial activities”. In test [3] (setting [8]), the “Growth inhibition diameter, S. aureus” value was found to be 14 mm. Also, the “Antibacterial activity against E. coli (in words)” value in test [4] (100 μg/disc) is “strong antibacterial activities”. For the same molecule, the “Growth inhibition diameter, E. coli” value in test [4] (setting [8]) is listed as 16 mm.

On to “Methyl (3,6-dibenzoyl-4-bromophenyl)acetate [Compound 13b]”, for which the “Pfnek-1 inhibitory activity (in words)” value in test [1] is on record as “inactivity”. For the same molecule, the IC50 was over 50 µM in test [1] (setting [6]) and 13 µM in test [2] (setting [9]).

Take `COC(=O)Cc1c(O)cc(Br)c(O)c1Br` [Compound 4a, Methyl (2,4-dibromo-3,6-dihydroxyphenyl)acetate]: the “Pfnek-1 activity of 4a relative to 4b” value in test [1] is listed as “five times more active”. In addition, the “Pfnek-1 inhibitory activity (in words)” value in test [1] was “most active”. The values for the IC50 in test [1] (setting [6]) and in test [2] (setting [7]) were about 1.8 µM and 12 µM, respectively. Further, in test [2], the “Antiplasmodial activity against FcB1 P. falciparum (in words)” value is reported as “moderately active”. Further, the “Antibacterial activity against S. aureus (in words)” value in test [3] (100 μg/disc) is “inactive”. In addition, the “Growth inhibition diameter, S. aureus” value in test [3] (setting [8]) was found to be 0 mm. The “Antibacterial activity against E. coli (in words)” value in test [4] (100 μg/disc) is “inactive”. The “Growth inhibition diameter, E. coli” value in test [4] (setting [8]) is 0 mm.

With `O=C(N[C@H](CO)[C@H](O)c1ccc([N+](=O)[O-])cc1)C(Cl)Cl` [chloramphenicol, reference compound], the “Growth inhibition diameter, E. coli” value in test [4] (30 μg/disc) amounted to 17 mm.

For `O=C1Cc2cc(O)c(Br)cc2O1` [Compound 6b, 6-bromo-5-hydroxy-3H-benzofuran-2-one], the “Pfnek-1 inhibitory activity (in words)” value in test [1] is “inactivity”. Moreover, the IC50 in test [1] (setting [6]) is over 50 µM; in test [2] (setting [7]), 17 µM.
